Reference: patent US20230390403A1, “COMPOSITIONS AND METHODS FOR DRUG DELIVERY” (North Carolina State University, priority 2020, published 2023)

How the values were obtained:
[1] = In vitro PTX release: hydrolysis of PTX succinic acid in PBS (HPLC); assay type: physicochemical; details: for half-life: PBS, 37° C.; for PTX-succinate remaining intact: after 24 hours
Description: In Vitro PTX Release. Hydrolytic studies of PTX succinic acid were carried out at 37° C. in PBS containing 0.01% DMSO and 0.1% Tween 80 at pH 7.4 and pH 6.5. 5.33 μM of PTX-succinic acid was dissolved in a 5 ml of medium and kept continuously stirring at 150 rpm/min. 50 μL of sample was removed at predetermined time intervals of 0, 24, 48, 72 and 96 hours and replaced with 50 μL of fresh media. Removed samples were mixed with 50% of acetonitrile and analyzed using Agilent 1290 HPLC system with Agilent 2.1×50 mm C18 column and mobile phase consisting of 60% ammonium formate and 40% acetonitrile. Concentration of PTX-SA and free PTX were determined using calibration curves.
The hydroxyl group at the C-2′ position is necessary for paclitaxel's anticancer activities. Therefore, the succinate ester must hydrolyze to achieve desired antitumor responses (41). We measured paclitaxel release from PTX-succinate in PBS at 37° C. in both neutral pH and the slightly acidic conditions (pH˜6.5) commonly observed in the tumor microenvironments. Disappearance of the PTX succinate peak and appearance of PTX peak was quantified using HPLC. […] After 24 hours, nearly 82% of PTX-succinate remained intact in acidic conditions, while 54% remained in the neutral condition. […] In contrast at the more acidic pH, paclitaxel continued its accumulation in the release media, with 60% of initial dose observed at 96 hours.

dermal tissue = assay: Intradermal anchoring of Cy7-maleimide (IVIS fluorescence); assay type: in vivo, CD-1 mice
Description: FIG. 12 is a plot showing the percent of the initial injection dose (% ID) maintained one day and one week following injection of Cy7-maleimide alone, Cy7-maleimide plus tris(2-carboxyethyl)phosphine (TCEP), and Cy7-maleimide plus mercaptoethanol (MCE).
To investigate whether maleimide molecules can anchor to dermal tissue by binding to available thiol groups, CD-1 mice were injected intradermally with Cy7-maleimide (50 uL of 0.2 mM) and monitored for fluorescence over 1 week using an IVIS imager. ICG/ICG excitation and emission filters were used for all IVIS images. Cy7-maleimide plus TCEP was used to attempt to increase free thiols by breaking disulfide bonds.

U87 tumor [2] = assay: Intratumoral anchoring of Cy7-maleimide (IVIS fluorescence); assay type: in vivo, nude mice; details: 50 uL of 0.2 mM, 1 week after injection
Description: FIG. 13 illustrates the intratumoral anchoring of Cy7-maleimide after one week.
To investigate whether active maleimide molecules can anchor to tissue in a tumor, nude mice were injected subcutaneously with U87 tumor cells mixed with Matrigel. Once tumor reached 100 mm^3, Cy7-maleimide (50 uL of 0.2 mM) was injected intratumorally and monitored for fluorescence over 1 week using an IVIS imager. ICG/ICG excitation and emission filters were used for all IVIS images. […] This validated that anchorable drug compounds containing a maleimide tissue binding moiety could efficiently react with thiol moieties present in proteins found within tumors following intratumoral injection.

U87 tumor [3] = assay: Tumor inhibition and survival after intratumoral or intravenous aldoxorubicin; assay type: in vivo, nude mice; details: intratumoral 10.5 mg/kg; compared to saline and intravenous aldoxorubicin
Text: FIGS. 14A-14D show the impact of intratumoral anchoring and local tumor release of a chemotherapeutic agent (aldoxorubicin) functionalized with a maleimide tissue binding moiety. FIG. 14A plots the percent change in tumor volume as a function of days after injection for mice treated with saline injection alone (control), intravenous injection of aldoxorubicin, and intratumoral injection of aldoxorubicin. FIG. 14B is a plot showing the probability of survival for mice treated with saline injection alone (control), intravenous injection of aldoxorubicin, and intratumoral injection of aldoxorubicin. FIG. 14C is a plot comparing tumor volume 7 days after treatment with saline injection alone (control), treatment with intravenous injection of aldoxorubicin, and treatment with intratumoral injection of aldoxorubicin. FIG. 14D is a plot comparing tumor volume 14 days after treatment with saline injection alone (control), treatment with intravenous injection of aldoxorubicin, and treatment with intratumoral injection of aldoxorubicin.
In a further proof-of-principle study, aldoxorubicin was used to validate the concept of anchoring (and subsequent local tumor release) of a chemotherapeutic agent functionalized with a maleimide tissue binding moiety. […] Tumor size and weight were measured at varying intervals following injection. […]

[4] = test system: KPC 4662 murine pancreatic tumor; assay: In vivo assessment of PTX-sNHS induced apoptosis (cleaved caspase 3 staining); set-up: species or system C57BL/6 mice; details: 72 hours after single intratumoral injection, 20 mg/kg
Description: To assess the ability of intratumoral depots to release free paclitaxel and induce apoptotic tumor cell death, ectopic pancreatic tumor model was developed by subcutaneous inoculation of approximately 1*10^6 KPC 4662 murine pancreatic tumor cells in 1:1 PBS/matrigel (Corning/cat #354234) solution on the dorsal flanks of 8 week old female albino C57BL/6 mice (Charles River). Once the tumors were approximately 100 mm^3 in volume, animals were randomly divided into four groups to receive either no treatment or single intratumoral injection of vehicle (50% NMP: alfa aesar, #AA44063-K2, 50% Saline: cat #470302-026, VWR), free paclitaxel (Medkoo, cat #100690, 20 mg/kg) and paclitaxel-sNHS (n=3/group, 20 mg/kg). […] For quantification of apoptosis, CC-3-stained vs hematoxylin-stained areas were measured with respect to total tumor area (45, 46).
To investigate whether intratumoral injection of TRAP paclitaxel has therapeutic efficacy in vivo, we studied paclitaxel-induced apoptosis in the fibrous, syngeneic KPC 4662 pancreatic adenocarcinoma mouse model. […] For quantification of apoptosis, whole tissue sections were scanned to detect CC-3 positive areas and quantified to assess the percent of whole tumor area undergoing apoptosis. […] Quantification of apoptosis was performed by computationally separating CC-3 stained from hematoxylin stained areas (45). […]

[5] = Aqueous solubility compared to paclitaxel; assay type: physicochemical

## 2′-O-succinyl paclitaxel [PTX-succinate]
[1]; neutral pH
  half-life: ~37 h
[1]; pH 6.5
  half-life: ~56 h
[1]; acidic pH (6.5), 96 hours
  free paclitaxel in release media, of initial dose: 60%
[1]; acidic conditions (pH 6.5)
  PTX-succinate remaining intact: ~82%
[1]; neutral condition
  PTX-succinate remaining intact: 54%
[1]; neutral pH, 96 hours
  free paclitaxel released (maximum): 32%

## C[N+]1=C(C=CC2=CC(=CC=C3N(CCCCCC(=O)NCCN4C(=O)C=CC4=O)c4ccccc4C3(C)C)CCC2)C(C)(C)c2ccccc21.[Cl-] [Cy7-maleimide, cyanine 7 maleimide]
Dermal tissue; intradermal injection, monitored over 1 week
  skin irritation or skin toxicity: No skin irritation or skin toxicity was observed
Dermal tissue; intradermal, 50 uL of 0.2 mM, after 1 week
  injection dose maintained: approximately 10%
U87 tumor [2]
  injection dose maintained: approximately 18%

## COc1cccc2c1C(=O)c1c(O)c3c(c(O)c1C2=O)C[C@@](O)(/C(CO)=N/NC(=O)CCCCCN1C(=O)C=CC1=O)C[C@@H]3O[C@H]1C[C@H](N)[C@H](O)[C@H](C)O1 [aldoxorubicin]
U87 tumor [3]
  survival probability: improved
  tumor inhibition: improved

## CC(=O)O[C@H]1C(=O)[C@@]2(C)[C@H]([C@H](OC(=O)c3ccccc3)[C@]3(O)C[C@H](OC(=O)[C@H](O)[C@@H](NC(=O)c4ccccc4)c4ccccc4)C(C)=C1C3(C)C)[C@]1(OC(C)=O)CO[C@@H]1C[C@@H]2O [paclitaxel]
[4]
  apoptotic area (CC-3 stained), of total tumor area: 27%
[4]; color saturation analysis
  necrosis, of tumor area: ~30%
[5]
  aqueous solubility: poorly soluble
